Laboratory results taken from ChEMBL document CHEMBL1156858, “Comparative analysis of DNA alkylation by conjugates between pyrrole-imidazole hairpin polyamides and chlorambucil or seco-CBI” (2010).
Calls of active or inactive are those of the source. The calls are words filed in the database; no cut-off is given here.

How the values were obtained:
Nucleic Acid [1] = experiment: Induction of DNA alkylation at 3'-side adenines in 5'-AGCAGTCAAAAA-3' site of 5'-Texas Red-modified 209bp DNA fragment at 10 nm to 1 uM after 18 hrs at 23 degC by high-resolution denaturing PAGE; assay type: nucleic-acid assay
Nucleic Acid [2] = experiment: Induction of DNA alkylation at 5'-AAAAAAGACTGCT-3' site of 5'-Texas Red-modified 209bp DNA fragment at 10 nm to 1 uM after 18 hrs at 23 degC by high-resolution denaturing PAGE; assay type: nucleic-acid assay
K562 = experiment: Growth inhibition of human K562 cells after 48 hrs by WST8 dye reduction assay; assay type: functional; conditions: K562, 48 h
Nucleic Acid [3] = experiment: Induction of DNA alkylation at 5' side in 5'-AGCAGTC-3' site of 5'-Texas Red-modified 209bp DNA fragment at 10 nm to 1 uM after 18 hrs at 23 degC by high-resolution denaturing PAGE; assay type: nucleic-acid assay
Nucleic Acid [4] = experiment: Induction of DNA alkylation at 5'-TCTTTTTAA-3' site of 5'-Texas Red-modified 209bp DNA fragment at 10 nm to 1 uM after 18 hrs at 23 degC by high-resolution denaturing PAGE; assay type: nucleic-acid assay

For `CN(C)CCCNC(=O)c1cc(NC(=O)c2cc(NC(=O)c3nc(NC(=O)CCNC(=O)c4cc(NC(=O)c5ncc(NC(=O)CCCNC(=O)c6cc(NC(=O)c7nc(NC(=O)CCNC(=O)c8cc(NC(=O)c9cc(NC(=O)c%10nc(NC(=O)CCNC(=O)CCCc%11ccc(N(CCCl)CCCl)cc%11)cn%10C)cn9C)cn8C)cn7C)cn6C)n5C)cn4C)cn3C)cn2C)cn1C`, the Activity (Nucleic Acid [1]) was “Active”, the Activity (Nucleic Acid [2]) was “inactive” and the GI50 (K562) was 8 µM.
For `CC(=O)Nc1cn(C)c(C(=O)Nc2cc(C(=O)Nc3cc(C(=O)NCCC(=O)Nc4cn(C)c(C(=O)Nc5cc(C(=O)N[C@H](CCNC(=O)CCCc6ccc(N(CCCl)CCCl)cc6)C(=O)Nc6cnc(C(=O)Nc7cc(C(=O)NCCC(=O)Nc8cn(C)c(C(=O)Nc9cc(C(=O)Nc%10cc(C(=O)NCCCN(C)C)n(C)c%10)n(C)c9)n8)n(C)c7)n6C)n(C)c5)n4)n(C)c3)n(C)c2)n1`, the Activity (Nucleic Acid [1]) was “Active”, the Activity (Nucleic Acid [3]) was “Active” and the Activity (Nucleic Acid [2]) was “inactive”. The GI50 (K562) was > 10 µM.
`CC(=O)Nc1cn(C)c(C(=O)Nc2cc(C(=O)Nc3cc(C(=O)NCCC(=O)Nc4cn(C)c(C(=O)Nc5cc(C(=O)NCCCC(=O)Nc6cn(C)c(C(=O)Nc7cc(C(=O)NCCC(=O)Nc8cn(C)c(C(=O)Nc9ccc%10[nH]c(C(=O)N%11CC(CCl)c%12c%11cc(O)c%11ccccc%12%11)cc%10c9)n8)n(C)c7)n6)n(C)c5)n4)n(C)c3)n(C)c2)n1` (configuration not stated) was tested, and the Activity (Nucleic Acid [1]) was “Active”, the Activity (Nucleic Acid [4]) was “Active” and the GI50 (K562) was 0.06 µM.
With `CN(C)CCCNC(=O)c1cc(NC(=O)c2cc(NC(=O)c3nc(NC(=O)CCNC(=O)c4cc(NC(=O)c5ncc(NC(=O)CCCNC(=O)c6cc(NC(=O)c7nc(NC(=O)CCNC(=O)c8cc(NC(=O)c9cc(NC(=O)c%10nc(NC(=O)CCCc%11ccc(N(CCCl)CCCl)cc%11)cn%10C)cn9C)cn8C)cn7C)cn6C)n5C)cn4C)cn3C)cn2C)cn1C` the Activity (Nucleic Acid [1]) was “Active”, the Activity (Nucleic Acid [2]) was “inactive” and the Activity (Nucleic Acid [4]) was “Active”. The GI50 (K562) was > 2.5 µM.
With `CC(=O)Nc1cn(C)c(C(=O)Nc2cc(C(=O)Nc3cc(C(=O)NCCC(=O)Nc4cn(C)c(C(=O)Nc5cc(C(=O)NCCCC(=O)Nc6cnc(C(=O)Nc7cc(C(=O)NCCC(=O)Nc8cn(C)c(C(=O)Nc9cc(C(=O)Nc%10cc(C(=O)NCCCN(C)CCCNC(=O)CCCc%11ccc(N(CCCl)CCCl)cc%11)n(C)c%10)n(C)c9)n8)n(C)c7)n6C)n(C)c5)n4)n(C)c3)n(C)c2)n1` the Activity (Nucleic Acid [1]) was “Active”, the Activity (Nucleic Acid [2]) was “Active” and the GI50 (K562) was > 2.5 µM.
